Reference: PubChem BioAssay AID252 (DTP/NCI, 2004)
Where “and” joins values, the source holds several entries; their conditions need not be identical. Equal values may be shown once. Inconclusive results and toxic doses are left out.

System: BDF1 mice, intracerebral L1210 leukemia, survival T/C
Experiment: NCI In Vivo Anticancer Drug Screen. Data for tumor model L1210 Leukemia (intracerebral) in B6D2F1 (BDF1) mice
Settings: higher = longer survival
Experimental: The antitumor activity of compounds was measured in mice bearing transplantable tumors. Survival or tumor size were measured and the results are expressed as the measurement made in the treated group (T) divided by the measurement made in the vehicle treated control group (C). The tumor model used in this assay is L1210 Leukemia (intracerebral) in B6D2F1 (BDF1) mice

[1] = endpoint: mean survival time, dose: 18.0 mg/kg/injection, schedule: Q01DX001 (ip), vehicle: carboxymethylcellulose (CMC)
[2] = endpoint: mean survival time, dose: 27.0 mg/kg/injection, schedule: Q01DX001 (ip), vehicle: carboxymethylcellulose (CMC)

NC(=O)N(CCCl)N=O
T/C (endpoint: mean survival time, dose: 1.2 mg/kg/injection, schedule: Q01DX001 (ip), vehicle: saline): 115 % of control | T/C (endpoint: mean survival time, dose: 1.8 mg/kg/injection, schedule: Q01DX001 (ip), vehicle: saline): 112 % of control | T/C (endpoint: mean survival time, dose: 3.6 mg/kg/injection, schedule: Q01DX001 (ip), vehicle: saline): 163 % of control | T/C (endpoint: mean survival time, dose: 5.0 mg/kg/injection, schedule: Q01DX001 (ip), vehicle: carboxymethylcellulose (CMC)): 176 % of control and 187 % of control | T/C (endpoint: mean survival time, dose: 7.2 mg/kg/injection, schedule: Q01DX001 (ip), vehicle: saline): 159 % of control and 229 % of control | T/C (endpoint: mean survival time, dose: 7.5 mg/kg/injection, schedule: Q01DX001 (ip), vehicle: carboxymethylcellulose (CMC)): 108 % of control

COc1cccc(NC(=O)N(CCCl)N=O)c1
T/C [1]: 115 % of control | T/C [2]: 115 % of control | T/C (endpoint: mean survival time, dose: 40.0 mg/kg/injection, schedule: Q01DX001 (ip), vehicle: carboxymethylcellulose (CMC)): 121 % of control | T/C (endpoint: mean survival time, dose: 60.0 mg/kg/injection, schedule: Q01DX001 (ip), vehicle: carboxymethylcellulose (CMC)): 97 % of control

O=C(O)CCCc1ccc(N(CCCl)CCCl)cc1
T/C [1]: 105 % of control | T/C [2]: 112 % of control | T/C (endpoint: mean survival time, dose: 41.0 mg/kg/injection, schedule: Q01DX001 (ip), vehicle: carboxymethylcellulose (CMC)): 112 % of control

CC(=O)OC1CCC(NC(=O)N(CCF)N=O)CC1 (configuration not stated)
T/C (endpoint: mean survival time, dose: 24.0 mg/kg/injection, schedule: Q01DX001 (ip), vehicle: other): 276 % of control | T/C (endpoint: mean survival time, dose: 32.0 mg/kg/injection, schedule: Q01DX001 (oral), vehicle: other): 516 % of control | T/C (endpoint: mean survival time, dose: 36.0 mg/kg/injection, schedule: Q01DX001 (ip), vehicle: other): 509 % of control

CC[n+]1c(-c2ccccc2)c2cc(N)ccc2c2ccc(N)cc21
T/C (endpoint: mean survival time, dose: 1.25 mg/kg/injection, schedule: Q01DX Z (ip), vehicle: saline): 104 % of control | T/C (endpoint: mean survival time, dose: 2.5 mg/kg/injection, schedule: Q01DX Z (ip), vehicle: saline): 100 % of control | T/C (endpoint: mean survival time, dose: 5.0 mg/kg/injection, schedule: Q01DX Z (ip), vehicle: saline): 101 % of control | T/C (endpoint: mean survival time, dose: 7.5 mg/kg/injection, schedule: Q01DX Z (ip), vehicle: saline): 100 % of control | T/C (endpoint: mean survival time, dose: 15.0 mg/kg/injection, schedule: Q01DX Z (ip), vehicle: saline): 86 % of control

O=C1C(Cl)=C(N2CC2)C(=O)C(Cl)=C1N1CC1
T/C (endpoint: mean survival time, dose: 0.62 mg/kg/injection, schedule: Q01DX009 (ip), vehicle: Klucel (hydroxypropylcellulose) (HPC)): 98 % of control | T/C (endpoint: mean survival time, dose: 0.62 mg/kg/injection, schedule: Q01DX009 (ip), vehicle: saline): 96 % of control | T/C (endpoint: mean survival time, dose: 1.25 mg/kg/injection, schedule: Q01DX009 (ip), vehicle: Klucel (hydroxypropylcellulose) (HPC)): 98 % of control | T/C (endpoint: mean survival time, dose: 1.25 mg/kg/injection, schedule: Q01DX009 (ip), vehicle: saline): 120 % of control and 96 % of control | T/C (endpoint: mean survival time, dose: 2.5 mg/kg/injection, schedule: Q01DX009 (ip), vehicle: Klucel (hydroxypropylcellulose) (HPC)): 98 % of control | T/C (endpoint: mean survival time, dose: 5.0 mg/kg/injection, schedule: Q01DX009 (ip), vehicle: Klucel (hydroxypropylcellulose) (HPC)): 96 % of control | T/C (endpoint: mean survival time, dose: 10.0 mg/kg/injection, schedule: Q01DX009 (ip), vehicle: Klucel (hydroxypropylcellulose) (HPC)): 96 % of control | T/C (endpoint: mean survival time, dose: 20.0 mg/kg/injection, schedule: Q01DX009 (ip), vehicle: Klucel (hydroxypropylcellulose) (HPC)): 90 % of control | T/C (endpoint: mean survival time, dose: 20.0 mg/kg/injection, schedule: Q01DX009 (ip), vehicle: saline): 87 % of control

O=NN(CCF)C(=O)NC1CC2CCC1C2 (configuration not stated)
T/C (endpoint: mean survival time, dose: 5.7 mg/kg/injection, schedule: Q01DX001 (ip), vehicle: other): 106 % of control | T/C (endpoint: mean survival time, dose: 11.5 mg/kg/injection, schedule: Q01DX001 (ip), vehicle: other): 115 % of control | T/C (endpoint: mean survival time, dose: 16.5 mg/kg/injection, schedule: Q01DX001 (ip), vehicle: other): 162 % of control | T/C (endpoint: mean survival time, dose: 23.0 mg/kg/injection, schedule: Q01DX001 (ip), vehicle: other): 161 % of control | T/C (endpoint: mean survival time, dose: 25.0 mg/kg/injection, schedule: Q01DX001 (ip), vehicle: other): 252 % of control | T/C (endpoint: mean survival time, dose: 37.0 mg/kg/injection, schedule: Q01DX001 (ip), vehicle: other): 274 % of control | T/C (endpoint: mean survival time, dose: 37.5 mg/kg/injection, schedule: Q01DX001 (ip), vehicle: other): 321 % of control | T/C (endpoint: mean survival time, dose: 46.0 mg/kg/injection, schedule: Q01DX001 (ip), vehicle: other): 309 % of control | T/C (endpoint: mean survival time, dose: 70.0 mg/kg/injection, schedule: Q01DX001 (ip), vehicle: other): 312 % of control | T/C (endpoint: mean survival time, dose: 126.0 mg/kg/injection, schedule: Q01DX001 (ip), vehicle: other): 312 % of control

CSc1ncnc2c1ncn2C1OC(CO)C(O)C1O (configuration not stated)
T/C (endpoint: mean survival time, dose: 25.0 mg/kg/injection, schedule: Q01DX Z (ip), vehicle: saline): 113 % of control | T/C (endpoint: mean survival time, dose: 50.0 mg/kg/injection, schedule: Q01DX Z (ip), vehicle: saline): 92 % of control

CNC1=C(N2CC2)C(=O)C(NC)=C(N2CC2)C1=O
T/C (endpoint: mean survival time, dose: 0.05 mg/kg/injection, schedule: Q01DX009 (ip), vehicle: saline): 106 % of control | T/C (endpoint: mean survival time, dose: 0.1 mg/kg/injection, schedule: Q01DX009 (ip), vehicle: saline): 111 % of control | T/C (endpoint: mean survival time, dose: 0.2 mg/kg/injection, schedule: Q01DX009 (ip), vehicle: saline): 160 % of control | T/C (endpoint: mean survival time, dose: 0.3 mg/kg/injection, schedule: Q01DX009 (ip), vehicle: saline): 119 % of control | T/C (endpoint: mean survival time, dose: 0.4 mg/kg/injection, schedule: Q01DX009 (ip), vehicle: saline): 103 % of control | T/C (endpoint: mean survival time, dose: 0.6 mg/kg/injection, schedule: Q01DX009 (ip), vehicle: saline): 160 % of control

CN(N=O)C(=O)Nc1ccc(F)cc1
T/C (endpoint: mean survival time, dose: 75.0 mg/kg/injection, schedule: Q01DX001 (ip), vehicle: carboxymethylcellulose (CMC)): 101 % of control | T/C (endpoint: mean survival time, dose: 150.0 mg/kg/injection, schedule: Q01DX001 (ip), vehicle: carboxymethylcellulose (CMC)): 103 % of control

O=NN(CCF)C(=O)Nc1c[nH]c(=O)[nH]c1=O
T/C (endpoint: mean survival time, dose: 9.0 mg/kg/injection, schedule: Q01DX001 (ip), vehicle: carboxymethylcellulose (CMC)): 103 % of control | T/C (endpoint: mean survival time, dose: 13.0 mg/kg/injection, schedule: Q01DX001 (ip), vehicle: carboxymethylcellulose (CMC)): 105 % of control | T/C (endpoint: mean survival time, dose: 20.0 mg/kg/injection, schedule: Q01DX001 (ip), vehicle: carboxymethylcellulose (CMC)): 110 % of control

COc1cccc2c1C(=O)c1c(O)c3c(c(O)c1C2=O)C[C@@](O)(C(C)=O)C[C@@H]3OC1CC(N)C(O)C(C)O1 (some centres not stated)
T/C (endpoint: mean survival time, dose: 1.08 mg/kg/injection, schedule: Q04DX003 (ip), vehicle: water): 101 % of control | T/C (endpoint: mean survival time, dose: 1.8 mg/kg/injection, schedule: Q04DX003 (ip), vehicle: water): 101 % of control | T/C (endpoint: mean survival time, dose: 3.0 mg/kg/injection, schedule: Q04DX003 (ip), vehicle: water): 97 % of control | T/C (endpoint: mean survival time, dose: 3.12 mg/kg/injection, schedule: Q01DX001 (ip), vehicle: water): 102 % of control | T/C (endpoint: mean survival time, dose: 5.0 mg/kg/injection, schedule: Q04DX003 (ip), vehicle: water): 102 % of control | T/C (endpoint: mean survival time, dose: 6.25 mg/kg/injection, schedule: Q01DX001 (ip), vehicle: water): 97 % of control | T/C (endpoint: mean survival time, dose: 12.5 mg/kg/injection, schedule: Q01DX001 (ip), vehicle: water): 91 % of control | T/C (endpoint: mean survival time, dose: 25.0 mg/kg/injection, schedule: Q01DX001 (ip), vehicle: water): 96 % of control | T/C (endpoint: median survival time, dose: 1.08 mg/kg/injection, schedule: Q04DX003 (ip), vehicle: water): 97 % of control | T/C (endpoint: median survival time, dose: 1.8 mg/kg/injection, schedule: Q04DX003 (ip), vehicle: water): 96 % of control | T/C (endpoint: median survival time, dose: 3.0 mg/kg/injection, schedule: Q04DX003 (ip), vehicle: water): 96 % of control | T/C (endpoint: median survival time, dose: 5.0 mg/kg/injection, schedule: Q04DX003 (ip), vehicle: water): 96 % of control | T/C (endpoint: median survival time, dose: 8.4 mg/kg/injection, schedule: Q04DX003 (ip), vehicle: water): 95 % of control

O=NN(CCCl)C(=O)Nc1ccc(SCC(=O)O)cc1
T/C (endpoint: mean survival time, dose: 12.0 mg/kg/injection, schedule: Q01DX001 (ip), vehicle: carboxymethylcellulose (CMC)): 95 % of control | T/C [1]: 96 % of control | T/C (endpoint: mean survival time, dose: 26.0 mg/kg/injection, schedule: Q01DX001 (ip), vehicle: carboxymethylcellulose (CMC)): 88 % of control

Cc1cc(C)c(NC(=O)N(CCCl)N=O)c(C)c1
T/C (endpoint: mean survival time, dose: 5.0 mg/kg/injection, schedule: Q01DX001 (ip), vehicle: other): 97 % of control | T/C (endpoint: mean survival time, dose: 7.5 mg/kg/injection, schedule: Q01DX001 (ip), vehicle: other): 98 % of control | T/C (endpoint: mean survival time, dose: 10.0 mg/kg/injection, schedule: Q01DX001 (ip), vehicle: other): 103 % of control | T/C (endpoint: mean survival time, dose: 15.0 mg/kg/injection, schedule: Q01DX001 (ip), vehicle: other): 107 % of control and 117 % of control | T/C (endpoint: mean survival time, dose: 20.0 mg/kg/injection, schedule: Q01DX001 (ip), vehicle: other): 115 % of control | T/C (endpoint: mean survival time, dose: 128.0 mg/kg/injection, schedule: Q01DX001 (ip), vehicle: other): 101 % of control

CN1CCN(CCCN2c3ccccc3Sc3ccc(Cl)cc32)CC1
T/C (endpoint: mean survival time, dose: 16.6 mg/kg/injection, schedule: Q01DX009 (ip), vehicle: saline): 108 % of control | T/C (endpoint: mean survival time, dose: 25.0 mg/kg/injection, schedule: Q01DX009 (ip), vehicle: saline): 103 % of control
